Common to all, as to type: functional, cell-based
The test system of one assay is HeLa. Briefly: Cytotoxicity against human HeLa cells assessed as growth inhibition after 2 days by MTT assay. The note with it: 48 h.
The next assay relates to MDA-MB-231. Briefly: Cytotoxicity against human MDA-MB-231 cells after 2 days by MTT assay. The note with it: MDA-MB-231, 48 h.
The next assay has as its system A549. Briefly: Cytotoxicity against human A549 cells after 2 days by MTT assay. The note with it: A549, 48 h. A general note: Tetrazolium assays rely on reduction of a dye to a coloured formazan, in cell work by metabolically active cells.
For a further assay, the system named is MCF7. As to the kind of experiment: Cytotoxicity against human MCF7 cells after 2 days by MTT assay. To be noted: MCF7, 48 h.

pIC50: −log10 of the molar value.

A word on the pIC50: it is −log10 of the IC50, conventionally taken in molar units. With `COc1cccc2c1C(=O)c1c(O)c3c(c(O)c1C2=O)C[C@@](O)(C(=O)CO)C[C@@H]3O[C@H]1C[C@H](N)[C@H](O)[C@H](C)O1` [DOXORUBICIN], the pIC50 is 6.29 with HeLa, 6.04 with MDA-MB-231, 6.34 in the assay with A549 and 4.87 in the assay on MCF7.
In the same order, the values of `C=CCCCC/C=C/C=C/C[C@H](O)[C@H](C)N` are 5.23, 5.10, 4.83 and less than 4.30.
For the compound `CCCCCC/C=C\CC/C=C/C[C@H](O)[C@H](C)N`, the pIC50 is 4.40 with HeLa, 4.90 in the assay with MDA-MB-231, 5.11 in the assay on A549 and 4.87 with MCF7.
On to `C=CCCCCCC/C=C\C[C@H](O)[C@H](C)N`, for which the pIC50 in the assay with HeLa was 4.72; in the assay on MDA-MB-231, 4.98; with A549, less than 4.30; with MCF7 it was 4.81.
